Results reported in patent US20120121545A1, “Pharmaceutical Composition For Bone Disease Treatment Or Countering Inflammation, Comprising Cartilage Stem Cells As An Active Principle” (CoreStem Co., Ltd., priority 2009, published 2012).

How the values were obtained:
Type in all cases: in vivo, Sprague-Dawley rats
[1] = test system: osteoarthritis-induced rats; test: Histopathological analysis of knee cartilage: Mankin score; settings: diclofenac sodium 2 mg/kg subcutaneously once a day for 84 days
Procedure: (§1) One hundred and twenty (120) 6-week-old male Sprague-Dawley rats (SLC, Japan) were used for test after accommodation for 7 days. All the test animals were kept in a polycarbonate cage, four or five each, and reared in a laboratory with temperature (20-25° C.) and humidity (40-45%) controlled. The light/dark cycle was 12 hours:12 hours, and feed (Samyang Corporation, Korea) and drinking water well provided freely. All the test animals had been fasted for at least 18 hours before sacrificing. They were treated according to “Guide for the Care and Use of Laboratory Animals by Institute of Laboratory Animal Resources, Commission on Life Science, National Research Council, USA on 1996, Washington D.C.”. On day 7 after joint surgery, the rats were grouped into 7 groups as described in Table 4 based on joint thickness and body weight. 8 rats were selected from each group (56 in total) for test.
(§2) The cells were suspended in CSBM at four different concentrations (high concentration: 9.6×10^6 cells/rat, intermediate high concentration: 4.8×10^6 cells/rat, intermediate low concentration: 2.4×10^6 cells/rat, low concentration: 1.2×10^6 cells/rat). […] For the normal group and the osteoarthritis-induced control group, only the CSBM was administered into the articular capsule.
For histopathological observation and analysis of the cartilage Mankin score and cartilage thickness were measured (Table 9). Mankin score is frequently used to evaluate arthritis. A higher score is known to be related with higher inducement of osteoarthritis (Armstrong et al., 1994; Rezende et al., 2006).
The articular capsule taken from the knee joint of each control group and test group was fixed for 5 days in 10% neutral-buffered formalin (NBF) and decalcified in decalcifying solution (24.4% formic acid, and 0.5 N sodium hydroxide). The decalcifying solution was replaced once a day for 5 days. After the decalcification, the median joint parts of the articular capsule were cut transversely and embedded in paraffin. After preparing 3-4 μm thick tissue sections, followed by deparaffinization and hydration, the cartilage was observed after hematoxylin & eosin (H&E) staining and safranin O staining (Camplejohn and Allard, 1988; Kahveci et al., 2000; Tran et al., 2000).
Mankin score was measured by comparing damage to the knee joint tissue with that of the normal control group. Cartilage thickness of the tibia and the femur was measured by histomorphometry using an automatic image analyzer (DMI-300, DMI, Korea).
Mankin Score is Given by the Sum.
Percent change (%) between the cell administration group and the osteoarthritis-induced control group=[(Value of the cell administration group−Value of the osteoarthritis-induced control group)/Value of the osteoarthritis-induced control group]×100 Equation 2

[2] = test system: osteoarthritis-induced rats; test: Knee cartilage thickness by histomorphometry; settings: diclofenac sodium 2 mg/kg subcutaneously once a day for 84 days
Procedure: The articular capsule taken from the knee joint of each control group and test group was fixed for 5 days in 10% neutral-buffered formalin (NBF) and decalcified in decalcifying solution (24.4% formic acid, and 0.5 N sodium hydroxide). The decalcifying solution was replaced once a day for 5 days. After the decalcification, the median joint parts of the articular capsule were cut transversely and embedded in paraffin. […]
Mankin score was measured by comparing damage to the knee joint tissue with that of the normal control group. Cartilage thickness of the tibia and the femur was measured by histomorphometry using an automatic image analyzer (DMI-300, DMI, Korea). […]

[3] = test system: osteoarthritis-induced rats; test: Change in maximum knee joint angle, osteoarthritis-induced rats; settings: diclofenac sodium 2 mg/kg subcutaneously once a day for 84 days; after 84 days
Procedure: One hundred and twenty (120) 6-week-old male Sprague-Dawley rats (SLC, Japan) were used for test after accommodation for 7 days. All the test animals were kept in a polycarbonate cage, four or five each, and reared in a laboratory with temperature (20-25° C.) and humidity (40-45%) controlled. The light/dark cycle was 12 hours:12 hours, and feed (Samyang Corporation, Korea) and drinking water well provided freely. All the test animals had been fasted for at least 18 hours before sacrificing. They were treated according to “Guide for the Care and Use of Laboratory Animals by Institute of Laboratory Animal Resources, Commission on Life Science, National Research Council, USA on 1996, Washington D.C.”. […]
The administration groups of the drug and cell were sacrificed after 84 days. After taking out the right hind leg from the hip joint and removing nearby skin, connective tissues and muscles, the maximum knee joint angle was measured with the theoretical maximum as 0°. […]
Percent change between the normal control group and the osteoarthritis-induced control group was calculated by Equation 1 in order to evaluate the degree of inducement of osteoarthritis. Also, percent change between the cell administration group and the osteoarthritis-induced control group was calculated by Equation 2 in order to more clearly represent the efficacy of the administered cells. […]

[4] = test system: osteoarthritis-induced rats; test: Change in knee joint thickness, osteoarthritis-induced rats; settings: diclofenac sodium 2 mg/kg subcutaneously once a day for 84 days
Procedure: One hundred and twenty (120) 6-week-old male Sprague-Dawley rats (SLC, Japan) were used for test after accommodation for 7 days. All the test animals were kept in a polycarbonate cage, four or five each, and reared in a laboratory with temperature (20-25° C.) and humidity (40-45%) controlled. The light/dark cycle was 12 hours:12 hours, and feed (Samyang Corporation, Korea) and drinking water well provided freely. All the test animals had been fasted for at least 18 hours before sacrificing. They were treated according to “Guide for the Care and Use of Laboratory Animals by Institute of Laboratory Animal Resources, Commission on Life Science, National Research Council, USA on 1996, Washington D.C.”. On day 7 after joint surgery, the rats were grouped into 7 groups as described in Table 4 based on joint thickness and body weight. 8 rats were selected from each group (56 in total) for test. […] The joint thickness of the rats in the control groups and test groups was measured using calipers. […] Percent change between the normal control group and the osteoarthritis-induced control group was calculated by Equation 1 in order to evaluate the degree of inducement of osteoarthritis. Also, percent change between the cell administration group and the osteoarthritis-induced control group was calculated by Equation 2 in order to more clearly represent the efficacy of the administered cells. […]

[5] = test system: osteoarthritis-induced rats; test: Growth of chondrocytes in knee cartilage (BrdU labelling); settings: diclofenac sodium 2 mg/kg subcutaneously once a day for 84 days
Procedure: as §1, §2
Chondrocytes growing in the articular capsule were labeled with BrdU in order to investigate their growth due to the administration of the cartilage-derived stem cells. Since the cells labeled with BrdU are those grown after the injection of BrdU, the growth of chondrocytes can be analyzed.
5-Bromo-2′-deoxyuridine (50 mg/kg, BrdU, MP Biomedicals, OH, USA) diluted in physiological saline to a concentration of 2 mL/kg was intraabdominally injected once 72 hours before the sacrificing of the rats of the control groups and test groups. Then, immunohistochemical staining was performed using BrdU antibody (Hwang et al., 2000; Moore et al., 2005; Ganey et al., 2003; Ito et al., 1998; Tang et al., 2007).
The expression pattern of BrdU was investigated using the Vector Elite ABC kit (Vector Lab. Inc., CA., USA). After washing the tissue with DPBS, reaction was performed in 3% hydrogen peroxide (H2O2) solution for 30 minutes at room temperature. After washing with DPBS, reaction was performed for 30 minutes using normal horse serum (1:100, Vector Lab. Inc., CA, USA) in order to prevent nonspecific reaction that might occur during the staining. […] The number of cells responding to BrdU antibody by 10% or more was counted. From a total of 100 chondrocytes on the articular surface of the tibia and the femur, the percentage of BrdU-positive cells was measured using an automatic image analyzer. […]

## O=C(O)Cc1ccccc1Nc1c(Cl)cccc1Cl [Control drug, diclofenac sodium]
[1]
  Mankin score of the femur, decrease as compared to the osteoarthritis-induced control group: 27.85%
  Mankin score of the femur: Clones: 2.38 ± 0.92
  Mankin score of the femur: Hypocellularity: 1.38 ± 0.52
  Mankin score of the femur: Safranin O: 1.25 ± 0.46
  Mankin score of the femur: Sum (Max = 12): 7.13 ± 1.36
  Mankin score of the femur: Surface: 2.13 ± 0.35
  Mankin score of the tibia, decrease as compared to the osteoarthritis-induced control group: 20.59%
  Mankin score of the tibia: Clones: 1.75 ± 0.71
  Mankin score of the tibia: Hypocellularity: 1.63 ± 0.52
  Mankin score of the tibia: Safranin O: 1.38 ± 0.74
  Mankin score of the tibia: Sum (Max = 12): 6.75 ± 1.16
  Mankin score of the tibia: Surface: 2.00 ± 0.53
[2]
  Knee cartilage thickness, Femur: 409.48 ± 69.80
  cartilage thickness of the femur, increase as compared to the osteoarthritis-induced control group: 35.11%
  cartilage thickness of the tibia, increase as compared to the osteoarthritis-induced control group: 68.81%
[3]
  Maximum knee joint angle: 60.75 ± 6.78 °
  knee joint angle decreased as compared to the normal control group: 18.18%
[4]
  reduced knee joint thickness as compared to the osteoarthritis control group: 5.79%
[5]
  Number of BrdU-positive cells/100 chondrocytes, Femur: 8.63 ± 4.03 /100 chondrocytes
  Number of BrdU-positive cells/100 chondrocytes, Tibia: 8.13 ± 3.52 /100 chondrocytes
  number of BrdU-positive cells on the articular surface of the femur, increase as compared to the osteoarthritis-induced control group: 9.52%
  number of BrdU-positive cells on the articular surface of the tibia, increase as compared to the osteoarthritis-induced control group: 1.56%
